Reference: patent publication US11571418B2, “Platinum compounds that inhibit constitutive STAT3 signaling and induce cell cycle arrest and apoptosis of malignant cells” (H. LEE MOFFITT CANCER CENTER AND RESEARCH INSTITUTE, INC., priority 2011, dated 2023)

Target: T1, Stat3 (Mus musculus, UniProt P42227)
T1 construct: Nuclear extract preparation from NIH3T3 stimulated by rhIL-6, NIH3T3/hEGFR stimulated by rhEGF; endogenous in cells; host or cells: NIH3T3/hEGFR fibroblasts stimulated with rhEGF (nuclear extract)
Test: In vitro Stat3 DNA-binding activity assay, EMSA with hSIE probe
Method: FIGS. 1A-1E. Inhibition of in vitro Stat3 DNA-binding activity by a platinum complex. Nuclear extracts or cell lysates containing activated Stat1, Stat3 and Stat5, or E2F1 prepared from NIH3T3/hEGFR that are stimulated with EGF or Sf-9 insect cells that are infected with baculovirus expressing Stat1, Stat3, Stat5, or E2F1, respectively, were treated with or without the indicated concentrations of platinum complex, PLATINUM-401 or Cisplatin, for 30 min at room temperature prior to incubation with radiolabeled oligonucleotide probes, and subjected to EMSA analysis. (FIG. 1A) (i) Stat1 and Stat3 binding activities to hSIE probe, (ii) Stat1 and Stat5 binding activities to MGFe probe, and (iii) plot of % oligonucleotide probe-STAT:STAT complexes versus concentration of PLATINUM-401. […] Positions of STAT: STAT-DNA complexes in gel are labeled. In (A) to (C), the control lanes represent DMSO (vehicle)-treatment.
Nuclear extract preparation and gel shift assays—Nuclear extract preparation from NIH3T3 stimulated by rhIL-6, NIH3T3/hEGFR stimulated by rhEGF, v-Src-transformed fibroblasts (NIH3T3/v-Src) or tumor cell lines and electrophoretic mobility shift assay were carried out as previously described (Turkson et al., 1998; Garcia et al., 1997; Yu et al., 1995). The ^32P-labeled oligonucleotide probes used are hSIE (high affinity sis-inducible element from the c-fos gene, m67 variant, 5′-[…]) (SEQ ID NO:1) that binds Stat1 and Stat3 (Garcia et al., 1997; Wagner et al., 1990) and MGFe (mammary gland factor element from the bovine β-casein gene promoter, 5′-AGATTTCTAGGAATTCAA) (SEQ ID NO:2) for Stat1 and Stat5 binding (49,50). Except where indicated, inhibitor compound was pre-incubated with the nuclear extract for 30 min at room temperature prior to incubation with radiolabeled probe.
Compounds from the NCI 2000 diversity set were screened for inhibition of Stat3 signaling in an in vitro DNA-binding activity assay based on analysis by electrophoretic mobility shift assay (EMSA). A platinum (IV) complex, PLATINUM-401 (NSC 295558) (FIG. 1E), was identified as a potent inhibitor of Stat3 and was further characterized for its anti-Stat3 properties. In the in vitro DNA-binding activity assay, nuclear extracts of equal total protein containing active Stat1, Stat3 and Stat5 were pre-incubated with different concentrations of PLATINUM-401 for 30 min prior to incubation with a [^32P]-labeled oligonucleotide, the m67 high affinity sis-inducible element (hSIE) probe that binds Stat1 and Stat3, or the mammary gland factor element (MGFe) that binds Stat1 and Stat5. Samples were then subjected to EMSA.

T1 sequence (P42227 2-770 limits assumed): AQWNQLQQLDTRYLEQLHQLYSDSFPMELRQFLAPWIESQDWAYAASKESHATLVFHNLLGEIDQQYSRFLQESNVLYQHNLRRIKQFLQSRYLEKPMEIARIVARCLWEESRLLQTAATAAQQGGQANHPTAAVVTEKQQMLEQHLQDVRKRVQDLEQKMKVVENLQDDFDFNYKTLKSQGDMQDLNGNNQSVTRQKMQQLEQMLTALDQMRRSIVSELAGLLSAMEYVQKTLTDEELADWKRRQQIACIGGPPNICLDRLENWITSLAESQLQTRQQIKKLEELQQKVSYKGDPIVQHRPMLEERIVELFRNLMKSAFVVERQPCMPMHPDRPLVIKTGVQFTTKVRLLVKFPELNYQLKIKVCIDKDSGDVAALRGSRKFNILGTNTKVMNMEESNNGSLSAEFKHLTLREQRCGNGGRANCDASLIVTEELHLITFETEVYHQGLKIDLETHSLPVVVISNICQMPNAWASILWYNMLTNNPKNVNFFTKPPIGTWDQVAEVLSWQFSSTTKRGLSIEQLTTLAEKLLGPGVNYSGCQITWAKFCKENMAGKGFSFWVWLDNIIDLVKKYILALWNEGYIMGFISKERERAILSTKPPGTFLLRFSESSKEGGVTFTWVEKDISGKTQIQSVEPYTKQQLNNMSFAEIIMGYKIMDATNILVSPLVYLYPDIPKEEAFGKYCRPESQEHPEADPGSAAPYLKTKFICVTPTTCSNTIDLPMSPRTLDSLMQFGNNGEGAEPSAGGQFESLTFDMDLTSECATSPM

CC(O)CN1CCN(CC(C)O)CC1 (stereo not shown) [PLATINUM-401]
IC50: 1.4 µM | effect on Stat3 DNA-binding activity at low protein amount (1 μg protein): strong and a dose-dependent decrease | type of inhibition of Stat3 DNA-binding activity (Lineweaver-Burke plot) (0.3-2 μM compound, varied hSIE probe): non-competitive | effect on Stat3 DNA-binding activity at higher protein levels (2-3 μg protein): diminished effect | effect on Stat3 DNA-binding activity when protein is first bound to DNA (Stat3 incubated with hSIE probe 30 min, then compound 3-30 min): fails to disrupt | effect on DNA-binding activity of Stat3:Stat3 homodimer (pre-incubated 30 min before hSIE probe): dose-dependent reduction | effect on Stat3 DNA-binding activity on simultaneous addition of compound and hSIE probe (simultaneous addition, data not shown): inhibition
